According to patent publication US6417362B1, “Nitrogenous heterocyclic compounds and hyperlipemia remedy containing the same” (Meiji Seika Kaisha, Ltd., priority 1997, dated 2002):

Columns and labels:
[1] = test system: biosynthesis of triglycerides in cell strain HepG2 derived from human hepatoma; assay: Inhibitory activity against biosynthesis of triglycerides (14C-acetic acid incorporation); format: cell-based; details: HepG2 cells, test compound at final concentration of 3 μM
Description: Inhibitory activity against biosynthesis of triglycerides The inhibitory activity of the compounds according to the present invention against the biosynthesis of triglycerides were studied using cell strain HepG2 derived from human hepatoma.
The test was carried out by the method of Nagata et al. (Biochem. Pharmacol., 40, 843 (1990)) and the method of Furukawa et al. (J. Biol. Chem., 267, 22630 (1992)) which had been partly modified. Specifically, HepG2 cells were cultivated in a Dulbecco's modified Eagle's medium (DMEM), containing 10% fetal calf serum (FCS), 100 units/ml penicillin, and 100 μg/ml streptomycin, placed in 96-well plates. Thereafter, the medium was replaced with DMEM containing 1% bovine serum albumin, and the test compound was simultaneously added to a final concentration of 3 μM or was not added, followed by cultivation. Three hr after the replacement of the medium, ^14C-acetic acid was added to a final concentration of 1 mM, followed by cultivation for additional 4 hr. The cells were washed with a phosphate buffer (pH 7.5) containing 150 mM sodium chloride. Thereafter, lipid within the cells was extracted with n-butanol. After the extraction, the extract was evaporated to dryness under a nitrogen gas stream. The residue was dissolved in a small amount of chloroform. The solution was developed in thin-layer chromatography (developing solvent petroleum ether:diethyl ether:acetic acid=90:15:3), and a ^14C-triglyceride fraction was isolated. The amount of […] produced was then quantitatively determined with a liquid scintillation counter (Beckman, LS-6500).
The inhibition (%) of the biosynthesis of triglycerides was calculated by the following equation:
Inhibition (%) of biosynthesis of triglycerides={1-(amount of ^14C-triglycerides produced in the presence of drug)/(amount of ^14C-triglycerides produced in the absence of drug)}×100.

[2] = test system: secretion of apolipoprotein B in cell strain HepG2 derived from hepatoma; assay: Inhibitory activity against secretion of apolipoprotein B (sandwich ELISA); format: cell-based; details: Homo sapiens; HepG2 cells, test compound at final concentration of 3 μM
Description: Inhibitory activity against secretion of apolipoprotein B
The inhibitory activity of the compounds according to the present invention against the secretion of apolipoprotein B was studied using cell strain HepG2 derived from hepatoma.
The test was carried out by the method of Nagata et al. (Biochem. Pharmacol., 40, 843 (1990)) and the method of Furukawa et al. (J. Biol. Chem., 267, 22630 (1992)) which had been partly modified. Specifically, HepG2 cells were cultivated in a Dulbecco's modified Eagle's medium (DMEM), containing 10% fetal calf serum (FCS), 100 units/ml penicillin, and 100 μg/ml streptomycin, placed in 96-well plates. Thereafter, the medium was replaced with DMEM containing 1% bovine serum albumin, and the test compound was simultaneously added to a final concentration of 3 μM or not added, followed by cultivation. Three hr after the replacement of the medium, acetic acid was added to a final concentration of 1 mM, followed by cultivation for additional 4 hr. The amount of apolipoprotein B secreted in the supernatant of the culture thus obtained was quantitatively determined by the sandwich ELISA method. In this case, goat anti-human apolipoprotein B polyclonal antibody (CHEMICON) was used as a primary antibody, and mouse anti-human apolipoprotein B monoclonal antibody peroxidase conjugate (BIOSYS) was used as a secondary antibody.
The inhibition (%) against the secretion of apolipoprotein B was calculated by the following equation:
Inhibition (%) of secretion of apolipoprotein B={1-(amount of apolipoprotein B secreted in the presence of drug)/(amount of apolipoprotein B secreted in the absence of drug)}×100

[3] = test system: ddY mice (male); assay: Acute toxicity test in mice; format: in vivo; details: orally administered 200 mg/kg, observed for 8 days
Description: (§1) An acute toxicity test was carried out using mice and rats by a conventional method.

[4] = test system: wistar rats (male); assay: Acute toxicity test in rats; format: in vivo; details: orally administered 200 mg/kg, observed for 8 days
Description: as §1

Q: Which results are given for `CC(C)=CCC/C(C)=C/CC/C(C)=C/CN1CCN(c2ccc3c(c2)C(=O)N(C2CCCCC2)C3)CC1` [Example 5, 2-Cyclohexyl-2,3-dihydro-6-[4-(trans,trans-farnesyl)piperazin-1-yl]-1H-isoindol-1-one]?
A: inhibition at 3 µM [1]: 90%; inhibition at 3 µM [2]: 56%

Q: With `O=C1c2cc(N3CCN(CCC(c4ccccc4)c4ccccc4)CC3)ccc2CN1C1CCCCC1` [Example 8, 2-Cyclohexyl-2,3-dihydro-6-[4-(3,3-diphenyl-1-propyl)piperazin-1-yl]-1H-isoindol-1-one] as the compound, how does the inhibition at 3 µM [1] read?
A: Its inhibition at 3 µM is 79%.

Q: And the inhibition at 3 µM [2]?
A: Its inhibition at 3 µM is 70%.

Q: And the “change in general states, such as reduction in body weight” value [3]?
A: Its value is “any change in general states, such as a reduction in body weight, did not occur”.

Q: What about the “survival in acute toxicity test” value [3] of the same compound?
A: Its value is “survived”.

Q: What about the “change in general states, such as reduction in body weight” value [4] of the same compound?
A: Its value is “any change in general states, such as a reduction in body weight, did not occur”.

Q: What about the “survival in acute toxicity test” value [4] of the same compound?
A: The value was “survived”.

Q: With `O=C1c2cc(N3CCN(CCC(c4ccccc4)c4ccccc4)CC3)ccc2CCN1C1CCCCC1` [Example 68, 2-Cyclohexyl-7-[4-(3,3-diphenyl-1-propyl)-piperazin-1-yl]-3,4-dihydro-2H-isoquinolin-1-one] as the compound, how does the inhibition at 3 µM [1] read?
A: Its inhibition at 3 µM is 64%.

Q: And the inhibition at 3 µM [2]?
A: The inhibition at 3 µM was 61%.

Q: With `CC(C)(C)OC(=O)N1CCN(c2ccc3c(c2)C(=O)N(C2CCCCC2)C3)CC1` [Example 30, 6-[4-(t-Butoxycarbonyl)piperazin-1-yl]-2-cyclo-hexyl-2,3-dihydro-1H-isoindol-1-one] as the compound, how does the inhibition at 3 µM [1] read?
A: Its inhibition at 3 µM is 89%.

Q: What about the inhibition at 3 µM [2] of the same compound?
A: The inhibition at 3 µM was 68%.
